System: 276233-004-R-J1-PDC KRAS spheroids with HUVEC/MSC, viability
Experiment: Anticancer human tumor 276233-004-R-J1-PDC patient-derived colon adenocarcinoma cell line growth inhibition [KRAS2]
Conditions: for viability, T/C: stronger effect = lower value
Excerpt: Multicellular complex tumor spheroid response to RAS pathway inhibitors in combination with a targeted agents in patient-derived cell lines with oncogenic KRAS variants from multiple cancer types
A high-throughput screen of multi-cell type tumor spheroids was designed to identify active combinations of targeted small molecules and KRAS pathway inhibitors. Complex spheroids include a stromal component modeled by human endothelial cells (HUVEC) and fibroblasts modeled by human mesenchymal stem cells (MSCs). The concentration ranges selected for each drug and investigational agent were based upon clinically achievable concentrations if the clinical Cmax of the agent was known.
Compounds. The drugs and investigational agents: BI-3406 (NSC825286), BAY-293 (NSC824723), batoprotafib (TNO155; NSC825523), sotorasib (AMG 510; NSC818433), MRTX1257 (NSC819558), elimusertib (BAY 1895344; NSC800525), molibresib (GSK525762; NSC774829), temuterkib (LY3214996; NSC803410), venetoclax (NSC766270), alisertib (NSC759677), olaparib (NSC753686), talazoparib (NSC767125), erdafitinib (NSC781556), ipatasertib (NSC767898), cabozantinib (NSC761068), nintedanib (NSC756659), abemaciclib (NSC768073), docetaxel (NSC628503), trametinib (NSC758246), and sapanisertib (NSC764658) were obtained from the National Cancer Institute (NCI) Developmental Therapeutics Program Chemical Repository. The FDA-approved anticancer drug set is available from the Developmental Therapeutics Program. […] The stock solutions were prepared in dimethyl sulfoxide (DMSO, Sigma-Aldrich, St. Louis, MO, cat. D2650) at 800-fold the tested concentration and stored at -70 degrees C prior to their use. All drugs and investigational agents were tested over a range starting from a high concentration at or near the clinical Cmax and decreasing in half-log increments. If the clinical Cmax for an agent had not been determined, the highest concentration tested was 10 microM.
Cell Culture. All cells were maintained in an incubator at 37 degrees C and 5% CO2 with 95% humidity. The PDC lines were cultured according to standard operating procedures established by the NCI PDMR (https://pdmr.cancer.gov/sops/default.htm). Briefly, all PDCs were thawed and cultured in Matrigel-coated flasks prepared with a working solution of 1X Ham's F-12 nutrient mix, without supplementation (Invitrogen, Waltham, MA, cat. 11765054), 100 U/mL penicillin-streptomycin (Invitrogen, cat. 15140122), and 2.5% Matrigel (Corning Inc., Corning, NY, cat. 354248) for the first three passages. All PDCs were cultured in complete DMEM/F-12 media containing advanced DMEM/F-12 (Invitrogen, cat. 12634028), 4.9% defined fetal bovine serum, heat inactivated (HyClone Laboratories Inc., Logan, UT, cat. SH30070.03HI), 389 ng/mL hydrocortisone (Sigma-Aldrich, cat. H4001), 9.7 ng/mL human EGF recombinant protein (Invitrogen, cat. PHG0313), 23.4 microg/mL adenine (Sigma-Aldrich, cat. A2786), 97.3 U/mL penicillin-streptomycin (Invitrogen, cat. 15140122), 1.9 mM L-glutamine (Invitrogen, cat. 25030081), and 9.7 microM Y-27632 dihydrochloride (Tocris Bioscience, Bristol, United Kingdom, cat. 1254). The PDCs were cultured in complete DMEM/F12 media without 9.7 microM Y-27632 dihydrochloride for at least two passages prior to the screen. The established cell line HOP-62 was cultured in RPMI 1640 medium, HEPES (Invitrogen, cat. 22400105) with 10% defined fetal bovine serum (HyClone Laboratories Inc., cat. SH30070.03) and 2 mM L-glutamine (Invitrogen, cat. 25030081). The pooled donor HUVEC were cultured in endothelial cell growth medium 2 (PromoCell, Heidelberg, Germany, cat. C-22011) and the hMSC were cultured in mesenchymal stem cell growth medium 2 (PromoCell, cat. C-28009). For all experiments, HUVEC and hMSC were used at passages </=5, while the malignant cell lines were used at passages </=15. […]

[1] = curve of first compound, second compound 0.1 µM
[2] = curve of first compound, second compound 0.316 µM
[3] = curve of first compound, second compound 1 µM
[4] = curve of first compound, second compound 3.16 µM
[5] = curve of first compound, second compound 10 µM
[6] = second compound 0.1 µM, first compound 0.000316 µM
[7] = second compound 0.1 µM, first compound 0.001 µM
[8] = second compound 0.1 µM, first compound 0.00316 µM
[9] = second compound 0.1 µM, first compound 0.01 µM
[10] = second compound 0.1 µM, first compound 0.0316 µM
[11] = second compound 0.1 µM, first compound 0.1 µM
[12] = second compound 0.316 µM, first compound 0.000316 µM
[13] = second compound 0.316 µM, first compound 0.001 µM
[14] = second compound 0.316 µM, first compound 0.00316 µM
[15] = second compound 0.316 µM, first compound 0.01 µM
[16] = second compound 0.316 µM, first compound 0.0316 µM
[17] = second compound 0.316 µM, first compound 0.1 µM
[18] = second compound 1 µM, first compound 0.000316 µM
[19] = second compound 1 µM, first compound 0.001 µM
[20] = second compound 1 µM, first compound 0.00316 µM
[21] = second compound 1 µM, first compound 0.01 µM
[22] = second compound 1 µM, first compound 0.0316 µM
[23] = second compound 1 µM, first compound 0.1 µM
[24] = second compound 3.16 µM, first compound 0.000316 µM
[25] = second compound 3.16 µM, first compound 0.001 µM
[26] = second compound 3.16 µM, first compound 0.00316 µM
[27] = second compound 3.16 µM, first compound 0.01 µM
[28] = second compound 3.16 µM, first compound 0.0316 µM
[29] = second compound 3.16 µM, first compound 0.1 µM
[30] = second compound 10 µM, first compound 0.000316 µM
[31] = second compound 10 µM, first compound 0.001 µM
[32] = second compound 10 µM, first compound 0.00316 µM
[33] = second compound 10 µM, first compound 0.01 µM
[34] = second compound 10 µM, first compound 0.0316 µM
[35] = second compound 10 µM, first compound 0.1 µM
[36] = second compound 0.1 µM, first compound 0.316 µM
[37] = second compound 0.1 µM, first compound 1 µM
[38] = second compound 0.1 µM, first compound 3.16 µM
[39] = second compound 0.1 µM, first compound 10 µM
[40] = second compound 0.316 µM, first compound 0.316 µM
[41] = second compound 0.316 µM, first compound 1 µM
[42] = second compound 0.316 µM, first compound 3.16 µM
[43] = second compound 0.316 µM, first compound 10 µM
[44] = second compound 1 µM, first compound 0.316 µM
[45] = second compound 1 µM, first compound 1 µM
[46] = second compound 1 µM, first compound 3.16 µM
[47] = second compound 1 µM, first compound 10 µM
[48] = second compound 3.16 µM, first compound 0.316 µM
[49] = second compound 3.16 µM, first compound 1 µM
[50] = second compound 3.16 µM, first compound 3.16 µM
[51] = second compound 3.16 µM, first compound 10 µM
[52] = second compound 10 µM, first compound 0.316 µM
[53] = second compound 10 µM, first compound 1 µM
[54] = second compound 10 µM, first compound 3.16 µM
[55] = second compound 10 µM, first compound 10 µM
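Note: cells exposed to agents for seven days before viability read.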
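Throughout, for viability, T/C: 100% = DMSO vehicle control wells and lower values mean fewer viable cells.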

CC(C)n1nc(-c2ccc3oc(N)nc3c2)c2c(N)ncnc21 + COc1cc2nc(C)nc(NC(C)c3cc(N)cc(C(F)(F)F)c3)c2cc1OC1CCOC1
IC50 [1]: > 100 nM
IC50 [2]: > 100 nM
IC50 [3]: 42.6 nM
IC50 [4]: > 100 nM
IC50 [5]: < 0.316 nM
viability, T/C [6]: 90.1%
viability, T/C [7]: 120%
viability, T/C [8]: 76.7%
viability, T/C [9]: 68%
viability, T/C [10]: 64.7%
viability, T/C [11]: 50.8%
viability, T/C [12]: 109%
viability, T/C [13]: 86.3%
viability, T/C [14]: 71.6%
viability, T/C [15]: 70.9%
viability, T/C [16]: 68%
viability, T/C [17]: 56.5%
viability, T/C [18]: 108%
viability, T/C [19]: 92.5%
viability, T/C [20]: 86.5%
viability, T/C [21]: 56.8%
viability, T/C [22]: 54.5%
viability, T/C [23]: 46%
viability, T/C [24]: 76.7%
viability, T/C [25]: 83.4%
viability, T/C [26]: 76.4%
viability, T/C [27]: 61.9%
viability, T/C [28]: 63.2%
viability, T/C [29]: 50.3%
viability, T/C [30]: 18.3%
viability, T/C [31]: 22.9%
viability, T/C [32]: 19.1%
viability, T/C [33]: 32.5%
viability, T/C [34]: 32.2%
viability, T/C [35]: 29.3%

O=C(c1cc(Cc2n[nH]c(=O)c3ccccc23)ccc1F)N1CCN(C(=O)C2CC2)CC1 + COc1cc2nc(C)nc(NC(C)c3cc(N)cc(C(F)(F)F)c3)c2cc1OC1CCOC1
IC50 [1]: > 10000 nM
IC50 [2]: > 10000 nM
IC50 [3]: > 10000 nM
IC50 [4]: > 10000 nM
IC50 [5]: 110 nM
viability, T/C [10]: 89.7%
viability, T/C [11]: 102%
viability, T/C [36]: 92.5%
viability, T/C [37]: 96%
viability, T/C [38]: 103%
viability, T/C [39]: 86.5%
viability, T/C [16]: 91.1%
viability, T/C [17]: 100%
viability, T/C [40]: 98%
viability, T/C [41]: 88.9%
viability, T/C [42]: 87.3%
viability, T/C [43]: 75.8%
viability, T/C [22]: 102%
viability, T/C [23]: 111%
viability, T/C [44]: 96.8%
viability, T/C [45]: 89.2%
viability, T/C [46]: 96.8%
viability, T/C [47]: 86.3%
viability, T/C [28]: 71.4%
viability, T/C [29]: 77.8%
viability, T/C [48]: 85.8%
viability, T/C [49]: 66%
viability, T/C [50]: 68.3%
viability, T/C [51]: 58%
viability, T/C [34]: 98.9%
viability, T/C [35]: 45.8%
viability, T/C [52]: 40.9%
viability, T/C [53]: 35.5%
viability, T/C [54]: 26%
viability, T/C [55]: 21.6%

COc1cc(Nc2ncc3c(n2)-c2ccc(Cl)cc2C(c2c(F)cccc2OC)=NC3)ccc1C(=O)O + CC1OCC2(CCN(c3cnc(Sc4ccnc(N)c4Cl)c(N)n3)CC2)C1N
IC50 [1]: > 10000 nM
IC50 [2]: > 10000 nM
IC50 [3]: > 10000 nM
IC50 [4]: 865 nM
IC50 [5]: < 31.6 nM
viability, T/C [10]: 107%
viability, T/C [11]: 85.6%
viability, T/C [36]: 86%
viability, T/C [37]: 75.6%
viability, T/C [38]: 99%
viability, T/C [39]: 68.5%
viability, T/C [16]: 83.9%
viability, T/C [17]: 82.5%
viability, T/C [40]: 84.7%
viability, T/C [41]: 82.4%
viability, T/C [42]: 67.1%
viability, T/C [43]: 64%
viability, T/C [22]: 75%
viability, T/C [23]: 73.8%
viability, T/C [44]: 75.2%
viability, T/C [45]: 74.9%
viability, T/C [46]: 65%
viability, T/C [47]: 52.2%
viability, T/C [28]: 61%
viability, T/C [29]: 51.1%
viability, T/C [48]: 51.3%
viability, T/C [49]: 55.2%
viability, T/C [50]: 44.4%
viability, T/C [51]: 45.2%
viability, T/C [34]: 46.5%
viability, T/C [35]: 49.2%
viability, T/C [52]: 41.9%
viability, T/C [53]: 42%
viability, T/C [54]: 54%
viability, T/C [55]: 48%

Cn1ncnc1[C@H]1c2n[nH]c(=O)c3cc(F)cc(c23)N[C@@H]1c1ccc(F)cc1 + CC1OCC2(CCN(c3cnc(Sc4ccnc(N)c4Cl)c(N)n3)CC2)C1N
IC50 [1]: > 100 nM
IC50 [2]: > 100 nM
IC50 [3]: > 100 nM
IC50 [4]: > 100 nM
IC50 [5]: > 100 nM
viability, T/C [6]: 95.8%
viability, T/C [7]: 99.4%
viability, T/C [8]: 102%
viability, T/C [9]: 99%
viability, T/C [10]: 94.3%
viability, T/C [11]: 85.1%
viability, T/C [12]: 92.5%
viability, T/C [13]: 83.5%
viability, T/C [14]: 98.1%
viability, T/C [15]: 88.3%
viability, T/C [16]: 74.9%
viability, T/C [17]: 89.6%
viability, T/C [18]: 88.9%
viability, T/C [19]: 95.2%
viability, T/C [20]: 104%
viability, T/C [21]: 82.6%
viability, T/C [22]: 69.4%
viability, T/C [23]: 65.6%
viability, T/C [24]: 83.8%
viability, T/C [25]: 70.1%
viability, T/C [26]: 68.8%
viability, T/C [27]: 52.8%
viability, T/C [28]: 59.5%
viability, T/C [29]: 62.9%
viability, T/C [30]: 68.8%
viability, T/C [31]: 66.4%
viability, T/C [32]: 64.9%
viability, T/C [33]: 64.5%
viability, T/C [34]: 54.2%
viability, T/C [35]: 54%

COc1cc2nccc(Oc3ccc(NC(=O)C4(C(=O)Nc5ccc(F)cc5)CC4)cc3)c2cc1OC
viability, T/C (compound 0.0316 µM): 93.2% [middle of 5 runs]
viability, T/C (compound 0.1 µM): 89.3% [middle of 5 runs]
viability, T/C (compound 3.16 µM): 93.1% [middle of 5 runs]
IC50 (curve of compound): > 10000 nM
